Measurements taken from ChEMBL document CHEMBL2429821, “A Casein kinase 1/Checkpoint kinase 1 pyrazolo-pyridine protein kinase inhibitor as novel activator of the p53 pathway” (Bioorg Med Chem Lett, 2013).

Experiments:
Rattus norvegicus [1] = species on record: Rattus norvegicus; assay: Inhibition of rat AMPK assessed as residual activity at 10 uM relative to control
Rattus norvegicus [2] = species on record: Rattus norvegicus; assay: Inhibition of rat AMPK assessed as residual activity at 1 uM relative to control
[3] = biological target: Serine/threonine-protein kinase PAK 4 (Homo sapiens) (UniProt O96013); assay: Inhibition of human PAK4 assessed as residual activity at 10 uM relative to control
[4] = biological target: Casein kinase II (Homo sapiens) (UniProt P67870+P68400+P19784); assay: Inhibition of human CK2 assessed as residual activity at 1 uM relative to control; type: protein-complex assay
[5] = biological target: Tyrosine-protein kinase BTK (Homo sapiens) (UniProt Q06187); assay: Inhibition of human BTK assessed as residual activity at 1 uM relative to control
Tyrosine-protein kinase BTK (Homo sapiens), sequence (Q06187 whole entry): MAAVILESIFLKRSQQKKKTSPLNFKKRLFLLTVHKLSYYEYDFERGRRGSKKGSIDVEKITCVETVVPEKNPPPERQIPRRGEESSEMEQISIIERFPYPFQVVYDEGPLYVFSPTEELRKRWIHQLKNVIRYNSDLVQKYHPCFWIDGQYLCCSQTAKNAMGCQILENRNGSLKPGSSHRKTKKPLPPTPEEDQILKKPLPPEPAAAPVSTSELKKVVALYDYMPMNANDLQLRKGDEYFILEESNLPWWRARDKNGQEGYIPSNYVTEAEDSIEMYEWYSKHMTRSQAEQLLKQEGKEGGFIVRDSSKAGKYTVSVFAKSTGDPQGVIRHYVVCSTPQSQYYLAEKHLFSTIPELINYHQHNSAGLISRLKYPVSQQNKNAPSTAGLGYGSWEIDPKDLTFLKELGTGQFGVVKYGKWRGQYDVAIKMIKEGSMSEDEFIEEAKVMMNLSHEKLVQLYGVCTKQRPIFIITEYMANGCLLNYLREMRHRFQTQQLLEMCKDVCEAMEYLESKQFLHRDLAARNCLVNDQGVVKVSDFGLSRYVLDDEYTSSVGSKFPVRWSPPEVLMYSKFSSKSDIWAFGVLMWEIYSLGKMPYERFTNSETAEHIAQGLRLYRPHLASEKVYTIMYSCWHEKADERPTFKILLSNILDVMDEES

[6] = biological target: Serine/threonine-protein kinase pim-1 (Homo sapiens) (UniProt P11309); assay: Inhibition of human PIM1 assessed as residual activity at 1 uM relative to control
Serine/threonine-protein kinase pim-1 (Homo sapiens), sequence (P11309 whole entry, looked up): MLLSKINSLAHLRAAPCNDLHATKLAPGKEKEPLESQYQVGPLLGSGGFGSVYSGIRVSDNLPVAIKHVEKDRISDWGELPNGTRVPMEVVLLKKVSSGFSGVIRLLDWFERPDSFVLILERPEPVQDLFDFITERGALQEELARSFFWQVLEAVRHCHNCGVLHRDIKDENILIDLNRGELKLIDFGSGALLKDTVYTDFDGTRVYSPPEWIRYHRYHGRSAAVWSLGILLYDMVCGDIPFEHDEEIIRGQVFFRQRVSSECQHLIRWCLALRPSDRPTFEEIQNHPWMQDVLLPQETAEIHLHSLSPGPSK

[7] = biological target: MAP kinase-interacting serine/threonine-protein kinase 1 (Homo sapiens) (UniProt Q9BUB5); assay: Inhibition of human MNK1 assessed as residual activity at 1 uM relative to control
MAP kinase-interacting serine/threonine-protein kinase 1 (Homo sapiens), sequence (Q9BUB5 whole entry, looked up): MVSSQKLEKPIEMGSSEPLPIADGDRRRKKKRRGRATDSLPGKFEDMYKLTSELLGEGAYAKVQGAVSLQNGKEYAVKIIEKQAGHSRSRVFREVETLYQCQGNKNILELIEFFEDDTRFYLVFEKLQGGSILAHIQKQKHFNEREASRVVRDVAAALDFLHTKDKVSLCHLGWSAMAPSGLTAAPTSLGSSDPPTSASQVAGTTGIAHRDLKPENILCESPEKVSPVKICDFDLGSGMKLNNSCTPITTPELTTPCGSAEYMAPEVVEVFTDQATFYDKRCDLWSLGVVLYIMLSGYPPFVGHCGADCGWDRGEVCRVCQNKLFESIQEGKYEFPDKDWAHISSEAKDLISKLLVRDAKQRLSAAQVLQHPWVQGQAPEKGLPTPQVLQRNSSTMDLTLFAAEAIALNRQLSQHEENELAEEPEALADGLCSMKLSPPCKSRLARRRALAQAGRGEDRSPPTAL

[8] = biological target: MAP/microtubule affinity-regulating kinase 3 (Homo sapiens) (UniProt P27448); assay: Inhibition of human MARK3 assessed as residual activity at 1 uM relative to control
Bos taurus = species on record: Bos taurus; assay: Inhibition of cow PKA assessed as residual activity at 1 uM relative to control
[9] = biological target: Tyrosine-protein kinase CSK (Homo sapiens) (UniProt P41240); assay: Inhibition of human CSK assessed as residual activity at 1 uM relative to control
Tyrosine-protein kinase CSK (Homo sapiens), sequence (P41240 2-450 limits assumed): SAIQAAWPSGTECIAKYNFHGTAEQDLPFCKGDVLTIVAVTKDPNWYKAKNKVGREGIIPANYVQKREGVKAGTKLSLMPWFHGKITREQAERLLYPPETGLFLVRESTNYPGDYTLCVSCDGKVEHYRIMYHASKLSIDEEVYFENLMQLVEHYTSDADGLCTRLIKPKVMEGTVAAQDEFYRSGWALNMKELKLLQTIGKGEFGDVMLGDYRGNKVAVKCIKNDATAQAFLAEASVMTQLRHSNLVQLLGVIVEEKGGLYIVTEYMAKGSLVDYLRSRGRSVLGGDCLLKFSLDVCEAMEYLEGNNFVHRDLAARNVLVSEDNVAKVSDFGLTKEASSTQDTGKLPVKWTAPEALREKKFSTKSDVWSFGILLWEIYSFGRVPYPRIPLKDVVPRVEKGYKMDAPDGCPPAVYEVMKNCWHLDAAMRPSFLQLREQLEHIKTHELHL

[10] = biological target: Cyclin-dependent kinase 2 (Homo sapiens) (UniProt P24941); assay: Inhibition of human CDK2 assessed as residual activity at 10 uM relative to control
[11] = biological target: Aurora kinase B (Homo sapiens) (UniProt Q96GD4); assay: Inhibition of human Aurora-B assessed as residual activity at 10 uM relative to control
[12] = biological target: MAP kinase-interacting serine/threonine-protein kinase 1 (Homo sapiens) (UniProt Q9BUB5); assay: Inhibition of human MNK1 assessed as residual activity at 10 uM relative to control
[13] = biological target: T1, Eukaryotic elongation factor 2 kinase (Homo sapiens) (UniProt O00418); assay: Inhibition of human EF2K assessed as residual activity at 1 uM relative to control
T1 sequence (whole entry): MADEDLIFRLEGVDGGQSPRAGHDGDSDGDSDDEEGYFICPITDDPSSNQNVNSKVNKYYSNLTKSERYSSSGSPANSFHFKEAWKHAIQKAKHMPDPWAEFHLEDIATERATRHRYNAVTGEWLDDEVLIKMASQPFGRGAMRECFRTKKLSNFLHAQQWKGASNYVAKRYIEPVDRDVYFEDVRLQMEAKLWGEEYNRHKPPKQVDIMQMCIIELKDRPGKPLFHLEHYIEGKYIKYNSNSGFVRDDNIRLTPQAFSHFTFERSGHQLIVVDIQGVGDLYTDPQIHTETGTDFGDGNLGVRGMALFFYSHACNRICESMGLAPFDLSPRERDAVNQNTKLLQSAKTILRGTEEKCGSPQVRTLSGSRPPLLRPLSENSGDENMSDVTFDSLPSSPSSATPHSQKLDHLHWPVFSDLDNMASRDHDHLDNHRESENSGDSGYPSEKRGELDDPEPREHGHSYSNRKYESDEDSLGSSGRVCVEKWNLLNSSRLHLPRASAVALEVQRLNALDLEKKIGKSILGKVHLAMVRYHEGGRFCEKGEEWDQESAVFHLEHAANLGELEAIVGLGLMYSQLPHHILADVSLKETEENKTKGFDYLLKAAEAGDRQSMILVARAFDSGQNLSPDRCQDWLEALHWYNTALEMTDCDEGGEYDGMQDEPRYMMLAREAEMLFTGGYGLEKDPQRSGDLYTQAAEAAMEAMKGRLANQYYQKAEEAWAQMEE

[14] = biological target: Protein kinase C alpha type (Homo sapiens) (UniProt P17252); assay: Inhibition of human PKCalpha assessed as residual activity at 10 uM relative to control
[15] = biological target: Casein kinase I isoform delta (Rattus norvegicus) (UniProt Q06486); assay: Inhibition of rat CK1delta assessed as residual activity at 1 uM relative to control
Casein kinase I isoform delta (Rattus norvegicus), sequence (Q06486 whole entry, looked up, canonical isoform): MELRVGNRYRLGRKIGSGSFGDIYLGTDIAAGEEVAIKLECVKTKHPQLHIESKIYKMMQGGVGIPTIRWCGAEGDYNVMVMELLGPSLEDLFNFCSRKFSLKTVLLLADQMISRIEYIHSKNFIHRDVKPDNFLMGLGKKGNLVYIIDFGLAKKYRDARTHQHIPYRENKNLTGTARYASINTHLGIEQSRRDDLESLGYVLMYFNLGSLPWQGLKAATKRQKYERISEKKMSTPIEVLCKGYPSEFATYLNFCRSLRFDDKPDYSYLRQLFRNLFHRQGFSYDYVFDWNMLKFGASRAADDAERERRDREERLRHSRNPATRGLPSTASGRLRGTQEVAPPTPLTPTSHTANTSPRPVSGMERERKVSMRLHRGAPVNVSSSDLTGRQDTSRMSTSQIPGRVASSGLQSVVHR

[16] = biological target: Insulin receptor (Homo sapiens) (UniProt P06213); assay: Inhibition of human IR assessed as residual activity at 1 uM relative to control
Insulin receptor (Homo sapiens), sequence (P06213 28-758 limits assumed): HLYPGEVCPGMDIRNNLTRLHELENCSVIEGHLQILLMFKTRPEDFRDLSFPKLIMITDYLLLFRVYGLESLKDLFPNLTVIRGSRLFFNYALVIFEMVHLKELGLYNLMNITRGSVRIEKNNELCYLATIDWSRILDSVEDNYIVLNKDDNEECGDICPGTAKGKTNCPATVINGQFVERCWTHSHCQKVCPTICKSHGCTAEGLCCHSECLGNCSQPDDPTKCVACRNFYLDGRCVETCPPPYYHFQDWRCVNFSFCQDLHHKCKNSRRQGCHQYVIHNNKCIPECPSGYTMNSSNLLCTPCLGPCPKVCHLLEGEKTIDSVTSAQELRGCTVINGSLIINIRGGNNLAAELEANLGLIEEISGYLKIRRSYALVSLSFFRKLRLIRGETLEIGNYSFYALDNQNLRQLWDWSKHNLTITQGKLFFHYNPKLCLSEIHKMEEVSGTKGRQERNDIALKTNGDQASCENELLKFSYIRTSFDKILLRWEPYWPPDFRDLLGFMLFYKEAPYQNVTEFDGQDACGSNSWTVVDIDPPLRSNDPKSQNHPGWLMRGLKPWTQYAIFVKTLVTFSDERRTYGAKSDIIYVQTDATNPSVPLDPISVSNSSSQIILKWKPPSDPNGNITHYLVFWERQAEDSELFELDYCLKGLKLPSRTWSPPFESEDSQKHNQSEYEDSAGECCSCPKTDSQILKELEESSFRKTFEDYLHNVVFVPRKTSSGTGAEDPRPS
Insulin receptor (Homo sapiens), sequence (P06213 763-1382 limits assumed): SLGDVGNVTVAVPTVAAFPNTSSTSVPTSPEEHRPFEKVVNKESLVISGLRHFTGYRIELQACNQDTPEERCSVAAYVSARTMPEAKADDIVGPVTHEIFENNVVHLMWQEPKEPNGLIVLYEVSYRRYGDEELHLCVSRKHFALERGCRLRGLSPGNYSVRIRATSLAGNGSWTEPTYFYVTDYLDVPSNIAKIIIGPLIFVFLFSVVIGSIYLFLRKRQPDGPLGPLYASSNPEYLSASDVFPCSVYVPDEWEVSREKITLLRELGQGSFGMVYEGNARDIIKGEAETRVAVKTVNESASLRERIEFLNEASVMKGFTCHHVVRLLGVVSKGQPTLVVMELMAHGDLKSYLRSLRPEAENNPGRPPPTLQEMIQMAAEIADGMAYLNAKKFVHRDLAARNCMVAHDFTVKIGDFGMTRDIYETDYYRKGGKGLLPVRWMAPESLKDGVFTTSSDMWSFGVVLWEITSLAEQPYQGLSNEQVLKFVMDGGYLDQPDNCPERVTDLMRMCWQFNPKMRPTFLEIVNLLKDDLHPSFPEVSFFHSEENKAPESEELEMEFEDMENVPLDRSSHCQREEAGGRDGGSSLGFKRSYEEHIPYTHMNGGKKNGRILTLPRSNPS

[17] = biological target: Mitogen-activated protein kinase 9 (Homo sapiens) (UniProt P45984); assay: Inhibition of human JNK2 assessed as residual activity at 1 uM relative to control
[18] = biological target: Tyrosine-protein kinase SYK (Homo sapiens) (UniProt P43405); assay: Inhibition of human SYK assessed as residual activity at 10 uM relative to control
Oryctolagus cuniculus = species on record: Oryctolagus cuniculus; assay: Inhibition of rabbit MKK1 assessed as residual activity at 1 uM relative to control
[19] = biological target: Cyclin-dependent kinase 2 (Homo sapiens) (UniProt P24941); assay: Inhibition of human CDK2 assessed as residual activity at 1 uM relative to control
[20] = biological target: T2, Serine/threonine-protein kinase TBK1 (Homo sapiens) (UniProt Q9UHD2); assay: Inhibition of human TBK1 assessed as residual activity at 10 uM relative to control
T2 sequence (whole entry): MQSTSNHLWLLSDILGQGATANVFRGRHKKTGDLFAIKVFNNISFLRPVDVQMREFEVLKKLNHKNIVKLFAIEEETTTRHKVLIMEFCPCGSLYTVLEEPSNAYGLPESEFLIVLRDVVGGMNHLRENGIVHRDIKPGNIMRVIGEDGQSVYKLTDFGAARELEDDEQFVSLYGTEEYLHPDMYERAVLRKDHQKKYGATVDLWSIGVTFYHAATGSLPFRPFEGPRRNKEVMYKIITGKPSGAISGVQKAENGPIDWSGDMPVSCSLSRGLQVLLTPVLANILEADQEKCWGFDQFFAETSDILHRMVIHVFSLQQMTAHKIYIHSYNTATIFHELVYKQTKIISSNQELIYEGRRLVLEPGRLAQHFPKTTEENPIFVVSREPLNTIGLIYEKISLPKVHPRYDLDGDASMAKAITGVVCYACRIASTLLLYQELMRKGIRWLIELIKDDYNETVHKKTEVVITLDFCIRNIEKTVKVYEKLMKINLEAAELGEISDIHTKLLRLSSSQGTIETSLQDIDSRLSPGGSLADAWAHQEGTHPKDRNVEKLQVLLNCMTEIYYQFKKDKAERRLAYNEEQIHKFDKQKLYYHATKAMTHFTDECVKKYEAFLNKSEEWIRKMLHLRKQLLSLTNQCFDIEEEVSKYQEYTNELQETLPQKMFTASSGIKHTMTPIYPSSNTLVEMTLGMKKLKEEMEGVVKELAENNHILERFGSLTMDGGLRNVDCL

[21] = biological target: Mitogen-activated protein kinase 8 (Homo sapiens) (UniProt P45983); assay: Inhibition of human JNK1 assessed as residual activity at 1 uM relative to control
[22] = biological target: Serine/threonine-protein kinase PLK1 (Homo sapiens) (UniProt P53350); assay: Inhibition of human PLK1 assessed as residual activity at 1 uM relative to control
Serine/threonine-protein kinase PLK1 (Homo sapiens), sequence (P53350 whole entry): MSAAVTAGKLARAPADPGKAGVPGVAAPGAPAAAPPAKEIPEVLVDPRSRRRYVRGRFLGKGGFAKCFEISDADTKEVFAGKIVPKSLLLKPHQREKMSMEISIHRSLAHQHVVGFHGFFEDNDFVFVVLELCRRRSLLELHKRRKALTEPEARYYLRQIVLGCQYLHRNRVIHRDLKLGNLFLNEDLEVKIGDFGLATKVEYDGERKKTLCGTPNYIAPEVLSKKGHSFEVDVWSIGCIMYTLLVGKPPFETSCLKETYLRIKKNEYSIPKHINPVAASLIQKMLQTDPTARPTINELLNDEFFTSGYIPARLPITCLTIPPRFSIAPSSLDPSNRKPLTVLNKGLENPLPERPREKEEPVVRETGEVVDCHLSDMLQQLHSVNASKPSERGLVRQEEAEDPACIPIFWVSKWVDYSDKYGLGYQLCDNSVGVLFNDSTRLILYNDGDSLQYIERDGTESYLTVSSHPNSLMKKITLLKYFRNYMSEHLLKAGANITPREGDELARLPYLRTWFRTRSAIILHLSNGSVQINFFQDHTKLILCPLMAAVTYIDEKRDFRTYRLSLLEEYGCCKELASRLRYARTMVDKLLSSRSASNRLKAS

| Activity (Rattus norvegicus [1]) | Activity (Rattus norvegicus [2]) | Activity [3] | Activity [4] | Activity [5] | Activity [6] | Activity [7] | Activity [8] | Activity (Bos taurus) | Activity [9] | Activity [10] | Activity [11] | Activity [12] | Activity [13] | Activity [14] | Activity [15] | Activity [16] | Activity [17] | Activity [18] | Activity (Oryctolagus cuniculus) | Compound | also measured |
| --- | --- | --- | --- | --- | --- | --- | --- | --- | --- | --- | --- | --- | --- | --- | --- | --- | --- | --- | --- | --- | --- |
| 69.9% | 74.3% | 51.9% | 102% | 93.2% | 73.1% | 70% | 62.6% | 95% | 95.3% | 40.3% | 85.1% | 19.3% | 112% | 104% | 32.7% | 106% | 98.5% | 55.9% | 75.7% | CC(=O)Nc1cccc(-c2cnc3[nH]nc(C)c3c2)c1 | Activity [19]: 76.7%; Activity [20]: 48.2%; Activity [21]: 93.3%; Activity [22]: 106% |
| 101% | 82.8% | 106% | 79.3% | 103% | 105% | 101% | 94.6% | 81.7% | 93.4% | 104% | 93% | 102% | 83.2% | 99.9% | 44.4% | 101% | 85.2% | 98.7% | 95.1% | CC(=O)Nc1nccc(-c2c(-c3ccccc3)noc2C)n1 | Activity [19]: 92.2%; Activity [20]: 105%; Activity [21]: 67%; Activity [22]: 76% |
| 105% | 93% | 79% | 82% | 85% | 89% | 79% | 84% | 101% | 91% | 5% | 71% | 91% | 106% | 81% | 73% | 101% | 99% | 104% | 90% | CCCC(=O)Nc1n[nH]c2ncc(-c3cccnc3)cc12 | Activity [19]: 9%; Activity [20]: 70%; Activity [21]: 97%; Activity [22]: 97% |
